Results reported in publication PMC9553667, “Pharmacokinetic Analysis of Diosgenin in Rat Plasma by a UPLC-MS/MS Approach” (Journal of Analytical Methods in Chemistry, 2022).
Where two headings read alike, the source gives them in different places.

Legend:
in vivo = assay: in vivo; design: species or system Male Sprague-Dawley rats; conditions: rat
Method: Liquid chromatography was performed using a UPLC system (Waters Corp., Milford, MA, USA) interfaced to a Q-Trap 5500 triple-quadruple mass spectrometer (AB SCIEX, Beijing, China) equipped with an electrospray ionization (ESI) source, as previously described. The isolation was performed on a Waters ACQUITY UPLC BEH C18 rapid resolution high definition column (2.1 × 50 mm, 1.7 μm) at 35°C. The temperature of the UPLC autosampler was 4°C. The mobile phase was mixed with acetonitrile and water (80 : 20, v/v, containing 0.03% formic acid in water). The flow rate was run at 0.3 ml/min. The injection volume was 2 μl, with a total running time of 5 min.
The positive ion multiple reaction monitoring (MRM) mode was used for quantification analysis in the mass analyzers, with the transitions of m/z 415.2⟶271.2 for diosgenin with fragment or voltage of 71.96 V and 295.2⟶277.1 for the IS with fragment or voltage of 120 V. The collision voltages for diosgenin and IS were 23.03 and 25.92 eV, respectively. The other settings were as follows: capillary voltage, 5.5 kV; source temperature, 500°C; curtain gas, 35 Psi; GS1, 50 Psi; GS2, 50 Psi.
Blank plasma samples were obtained from control Sprague-Dawley rats (n = 6). Briefly, 50 μl of the IS solution and 50 μl of plasma were added to a 0.5-ml Eppendorf tube and vortex mixed for 30 s. Methanol-acetonitrile (250 μl; 50 : 50, v/v) was added to the Eppendorf tube, and then, the sample was vortex mixed for 2 min. After centrifuging at 15,000 rpm for 15 min, the supernatants were injected into the UPLC-MS/MS system.
Male Sprague-Dawley rats (n = 12) weighing 180–220 g were supplied by Beijing Vital River Laboratory Animal Technology Co., Ltd. (Beijing, China; license number SCXK2018-0006). According to the ARRIVE guidelines, all experimental rats were kept under appropriate conditions, including proper humidity, temperature, light, diet, and water. Before starting the experiments, the rats were domesticated for 10 days under laboratory conditions to minimize their suffering. All experimental procedures were performed according to the Animal Care and Use Committee of Chengde Medical University (ethical approval no. CDMULAC-20180410016; Chengde, China). The rats were divided into two groups and were orally administered 100 mg/kg diosgenin and ASD (equivalent to 100 mg/kg diosgenin) suspended in a 0.5% w/v CMC–Na aqueous solution.
The caged rats were fasted (water provided ad libitum) for 12 h before the experiment. Before and after single administration of diosgenin, 0.15 ml blood was collected from the inner canthus under 2.5% isoflurane anesthesia in a heparinized blood collection vessel. The blood collection time points were 0.083, 0.25, 0.5, 0.75, 1, 2, 3, 4, 6, 8, 12, 24, 36, 48, and 72 h. Plasma was obtained after centrifugation for 15 min at 15,000 rpm and then stored at –80°C until analysis.
The pharmacokinetic parameters were calculated using noncompartmental pharmacokinetics data analysis software of DAS 3.0 (Drug and Statistics software, Drug Clinical Research Center, Shanghai University of Traditional Chinese Medicine, Shanghai, China). Relative bioavailability (F) was calculated according to the following formula:(1) F%=AUC0⟶∞diosgenin ASD/AUC0⟶∞diosgenin×100%.

[1] = assay type: in vitro ADME, rat; conditions: n = 6; for Measured concentration, autosampler stability: processed rat plasma, autosampler 4°C for 24 h; for Measured concentration, short-term stability / Measured concentration, freeze-thaw stability / Measured concentration, long-term stability: rat plasma; for Measured concentration, short-term stability: 25°C for 8 h; for Measured concentration, long-term stability: −20°C for 30 days
Method: Standard working solutions of diosgenin and IS were prepared by diluting stock solutions (100 μg/ml) with methanol. A series of calibration standards and QC working solutions were serially diluted with methanol from the standard solution. The working solutions were diluted with drug-free rat plasma at concentrations of 0.5, 1, 5, 50, 200, 1000, and 1,500 ng/ml. Similarly, the QC samples were made up at 5, 50, and 1,000 ng/ml, and IS was 42 ng/ml. All samples were immediately stored at −20°C.
QC samples in rat plasma at three concentrations were analyzed by assessing the stability of diosgenin under four conditions. Long-term stability was investigated by assaying QC samples kept at −20°C for 30 days. The short-term stability of QC samples was assessed for 8-h storage at 25°C. Freeze-thaw stability was determined by analyzing QC samples after three freeze-thaw cycles (−40°C to 25°C). Postpreparative stability was evaluated after a 24-h placement of QC samples in an autosampler at 4°C after preparation. When the accuracy and the precision were both within ±15% after the four tests, the stabilities were guaranteed.

[2] = assay type: in vitro ADME, rat; conditions: –20°C for 30 days, 25°C for 8 h, three freeze-thaw cycles, 4°C in an autosampler for 12 h
[3] = design: method as in PMID 24954725; conditions: rats; cited from earlier work
[4] = design: method as in PMID 23073665, PMID 20671764; conditions: cited from earlier work
[5] = male, Sprague-Dawley, po, 100 mg/kg

In the case of `C[C@@H]1CC[C@@]2(OC1)O[C@H]1C[C@H]3[C@@H]4CC=C5C[C@@H](O)CC[C@]5(C)[C@H]4CC[C@]3(C)[C@H]1[C@@H]2C` [Diosgenin], the CL/F (in vivo; male, Sprague-Dawley, oral, 100 mg/kg diosgenin or equivalent, mean ± SD, n = 6, read-out: CLz/F (converted)) is reported as 207 mL/min/kg, the Vd/F (in vivo; male, Sprague-Dawley, oral, 100 mg/kg diosgenin or equivalent, mean ± SD, n = 6, read-out: Vz/F) is reported as 231 ± 161 L/kg and the half-life (in vivo; male, Sprague-Dawley, oral, 100 mg/kg diosgenin or equivalent, mean ± SD, n = 6, read-out: t1/2z (converted)) is reported as 12.3 ± 3.02 h. For the same compound, the Cmax (in vivo; [5]) was 480 ± 121 ng/mL, the MRT last (in vivo; [5]) was 22.8 ± 5.55 h and the Tmax (in vivo; [5]) was 8.73 ± 5.74 h. For the same compound, the AUC0-t (in vivo; po, 100 mg/kg) was 9,302.27 ± 5,013.38 μg/l∗h, the “AUC0-∞” value (in vivo; po, 100 mg/kg) was 9,598.01 ± 5,151.91 μg/l∗h and the “Measured concentration, autosampler stability” value ([1]; indicated 5 ng/ml) was 5.32 ± 0.37 ng/mL. For the same compound, the “Measured concentration, autosampler stability” value ([1]; indicated 50 ng/ml) was 50.59 ± 3.69 ng/mL, the “Measured concentration, autosampler stability” value ([1]; indicated 1000 ng/ml) was 1001.01 ± 62.63 ng/mL and the “Measured concentration, short-term stability” value ([1]; indicated 5 ng/ml) was 5.41 ± 0.33 ng/mL. For the same compound, the “Measured concentration, short-term stability” value ([1]; indicated 50 ng/ml) was 50.23 ± 2.56 ng/mL, the “Measured concentration, short-term stability” value ([1]; indicated 1000 ng/ml) was 1000.88 ± 44.34 ng/mL and the “Measured concentration, freeze-thaw stability” value ([1]; three freeze-thaw cycles (−40°C to 25°C), indicated 5 ng/ml) was 5.98 ± 0.35 ng/mL. The “Measured concentration, freeze-thaw stability” value ([1]; three freeze-thaw cycles, indicated 50 ng/ml) was 51.69 ± 4.36 ng/mL, the “Measured concentration, freeze-thaw stability” value ([1]; three freeze-thaw cycles, indicated 1000 ng/ml) was 1002.9 ± 54.44 ng/mL and the “Measured concentration, long-term stability” value ([1]; indicated 5 ng/ml) was 5.99 ± 0.28 ng/mL. The “Measured concentration, long-term stability” value ([1]; indicated 50 ng/ml) was 50.02 ± 3.72 ng/mL, the “Measured concentration, long-term stability” value ([1]; indicated 1000 ng/ml) was 1001.65 ± 42.42 ng/mL and the “Stability in plasma under the storage conditions” value [2] was “remained stable”. For the same compound, the Absolute bioavailability [3] was “approximately 7%” and the Aqueous solubility [4] was “poor aqueous solubility”.
